Experimental data reported in patent US20260217701A1, “SELECTIVE BET INHIBITORS AND USES THEREOF” (Tay Therapeutics Limited, priority 2022, published 2026).
Where “and” joins values, the source holds several entries; their conditions need not be identical. Equal entries are not always repeated.

System: collagen-induced arthritis
Test: Collagen-induced arthritis (CIA) model: clinical scores and paw volume; for Animal paw volume percent change (%): reference of the scale not given here; for Average animal paw volume percent change (%): reference of the scale not given here
Type: in vivo, Lewis rats
Details: for Overall Clinical Score: individual animals 1-8; for Animal paw volume percent change (%): individual animals
[1] = Day 12, CIA + Compound A 10 mg/kg
[2] = Day 13, L paw, group 5 CIA + Compound A 1 mg/kg
[3] = Day 13, L paw, group 6 CIA + Compound A 3 mg/kg
[4] = Day 13, L paw, group 7 CIA + Compound A 10 mg/kg
[5] = Day 13, R paw, group 5 CIA + Compound A 1 mg/kg
[6] = Day 13, R paw, group 6 CIA + Compound A 3 mg/kg
[7] = Day 13, R paw, group 7 CIA + Compound A 10 mg/kg
[8] = Day 13, CIA + Compound A 1 mg/kg
[9] = Day 13, CIA + Compound A 3 mg/kg
[10] = Day 13, CIA + Compound A 10 mg/kg
[11] = Day 14, L paw, group 5 CIA + Compound A 1 mg/kg
[12] = Day 14, L paw, group 6 CIA + Compound A 3 mg/kg
[13] = Day 14, L paw, group 7 CIA + Compound A 10 mg/kg
[14] = Day 14, R paw, group 5 CIA + Compound A 1 mg/kg
[15] = Day 14, R paw, group 6 CIA + Compound A 3 mg/kg
[16] = Day 14, R paw, group 7 CIA + Compound A 10 mg/kg
[17] = Day 14, CIA + Compound A 1 mg/kg
[18] = Day 14, CIA + Compound A 3 mg/kg
[19] = Day 14, CIA + Compound A 10 mg/kg
[20] = Day 15, L paw, group 5 CIA + Compound A 1 mg/kg
[21] = Day 15, L paw, group 6 CIA + Compound A 3 mg/kg
[22] = Day 15, L paw, group 7 CIA + Compound A 10 mg/kg
[23] = Day 15, R paw, group 5 CIA + Compound A 1 mg/kg
[24] = Day 15, R paw, group 6 CIA + Compound A 3 mg/kg
[25] = Day 15, R paw, group 7 CIA + Compound A 10 mg/kg
[26] = Day 15, CIA + Compound A 1 mg/kg
[27] = Day 15, CIA + Compound A 3 mg/kg

SMILES: Cn1cc(-c2ccccc2)c(-c2cn(C)c(=O)c3[nH]c(-c4cnn(C(F)(F)F)c4)cc23)cc1=O [Compound A, 6-methyl-4-(1-methyl-2-oxo-5-phenyl-1,2-dihydropyridin-4-yl)-2-(1-(trifluoromethyl)-1H-pyrazol-4-yl)-1,6-dihydro-7H-pyrrolo[2,3-c]pyridin-7-one]
- Average detailed clinical score, left forelimb [1]: 0.00
- Average detailed clinical score, left hind limb [1]: 0.00
- Average detailed clinical score, right forelimb [1]: 0.00
- Average detailed clinical score, right hind limb [1]: 0.13
- Average detailed clinical score, score [1]: 0.13
- Average overall clinical score [1]: 0
- Average animal paw volume [2]: 1.42 mL
- Average animal paw volume percent change (%) [2]: 7.45%
- Average animal paw volume [3]: 1.40 mL
- Average animal paw volume percent change (%) [3]: 6.55%
- Average animal paw volume [4]: 1.41 mL
- Average animal paw volume percent change (%) [4]: 7.21%
- Average animal paw volume [5]: 1.43 mL
- Average animal paw volume percent change (%) [5]: 7.62%
- Average animal paw volume [6]: 1.40 mL
- Average animal paw volume percent change (%) [6]: 6.26%
- Average animal paw volume [7]: 1.41 mL
- Average animal paw volume percent change (%) [7]: 7.41%
- Average detailed clinical score, left forelimb [8]: 0
- Average detailed clinical score, left hind limb [8]: 0
- Average detailed clinical score, right forelimb [8]: 0
- Average detailed clinical score, right hind limb [8]: 0
- Average detailed clinical score, score [8]: 0
- Average overall clinical score [8]: 0
- Overall Clinical Score (Day 13, CIA + Compound A 1 mg/kg, 1 mg/kg): 0 (6×) and 2 and 1
- Average detailed clinical score, left forelimb [9]: 0
- Average detailed clinical score, left hind limb [9]: 0
- Average detailed clinical score, right forelimb [9]: 0
- Average detailed clinical score, right hind limb [9]: 0
- Average detailed clinical score, score [9]: 0
- Average overall clinical score [9]: 0
- Overall Clinical Score (Day 13, CIA + Compound A 3 mg/kg, 3 mg/kg): 0
- Average detailed clinical score, left forelimb [10]: 0
- Average detailed clinical score, left hind limb [10]: 0.125
- Average detailed clinical score, right forelimb [10]: 0.125
- Average detailed clinical score, right hind limb [10]: 0.25
- Average detailed clinical score, score [10]: 0.5
- Average overall clinical score [10]: 1
- Average animal paw volume [11]: 1.53 mL
- Average animal paw volume percent change (%) [11]: 15.36%
- Average animal paw volume [12]: 1.44 mL
- Average animal paw volume percent change (%) [12]: 9.64%
- Average animal paw volume [13]: 1.44 mL
- Average animal paw volume percent change (%) [13]: 9.68%
- Average animal paw volume [14]: 1.49 mL
- Average animal paw volume percent change (%) [14]: 11.73%
- Average animal paw volume [15]: 1.45 mL
- Average animal paw volume percent change (%) [15]: 10.16%
- Average animal paw volume [16]: 1.44 mL
- Average animal paw volume percent change (%) [16]: 9.90%
- Average detailed clinical score, left forelimb [17]: 0
- Average detailed clinical score, left hind limb [17]: 1
- Average detailed clinical score, right forelimb [17]: 0
- Average detailed clinical score, right hind limb [17]: 0
- Average detailed clinical score, score [17]: 1
- Average overall clinical score [17]: 1
- Overall Clinical Score (Day 14, CIA + Compound A 1 mg/kg, 1 mg/kg): 0 (3×) and 2 (2×) and 1 (3×)
- Average detailed clinical score, left forelimb [18]: 0
- Average detailed clinical score, left hind limb [18]: 0
- Average detailed clinical score, right forelimb [18]: 0
- Average detailed clinical score, right hind limb [18]: 0
- Average detailed clinical score, score [18]: 1
- Average overall clinical score [18]: 1
- Overall Clinical Score (Day 14, CIA + Compound A 3 mg/kg, 3 mg/kg): 0
- Average detailed clinical score, left forelimb [19]: 0
- Average detailed clinical score, left hind limb [19]: 0.25
- Average detailed clinical score, right forelimb [19]: 0
- Average detailed clinical score, right hind limb [19]: 0.375
- Average detailed clinical score, score [19]: 0.625
- Average overall clinical score [19]: 1
- Average animal paw volume [20]: 1.64 mL
- Average animal paw volume percent change (%) [20]: 24.11%
- Average animal paw volume [21]: 1.54 mL
- Average animal paw volume percent change (%) [21]: 16.70%
- Average animal paw volume [22]: 1.54 mL
- Average animal paw volume percent change (%) [22]: 16.95%
- Animal paw volume percent change (%) (Day 15, L paw, group 5 CIA + Compound A 1 mg/kg, 1 mg/kg): 10.73% and 42.25% and 30.26% and 23.40% and 10.86% and 24.91% and 44.53%
- Animal paw volume percent change (%) (Day 15, L paw, group 6 CIA + Compound A 3 mg/kg, 3 mg/kg): 12.93% and 23.35% and 12.17% and 8.79% and 18.01% and 25.47%
- Average animal paw volume [23]: 1.58 mL
- Average animal paw volume percent change (%) [23]: 19.02%
- Average animal paw volume [24]: 1.51 mL
- Average animal paw volume percent change (%) [24]: 14.88%
- Average animal paw volume [25]: 1.50 mL
- Average animal paw volume percent change (%) [25]: 14.23%
- Animal paw volume percent change (%) (Day 15, R paw, group 5 CIA + Compound A 1 mg/kg, 1 mg/kg): 8.43% and 39.77% and 13.09% and 24.15% and 10.33% and 30.42% and 20.00%
- Animal paw volume percent change (%) (Day 15, R paw, group 6 CIA + Compound A 3 mg/kg, 3 mg/kg): 4.53% and 9.73% and 9.81% and 5.20% and 34.75% and 17.23%
- Average detailed clinical score, left forelimb [26]: 0
- Average detailed clinical score, left hind limb [26]: 1
- Average detailed clinical score, right forelimb [26]: 0
- Average detailed clinical score, right hind limb [26]: 1
- Average detailed clinical score, score [26]: 2
- Average overall clinical score [26]: 2
- Overall Clinical Score (Day 15, CIA + Compound A 1 mg/kg, 1 mg/kg): 0 (3×) and 4 and 3 (3×) and 2
- Average detailed clinical score, left forelimb [27]: 0
- Average detailed clinical score, left hind limb [27]: 1
- Average detailed clinical score, right forelimb [27]: 0
- Average detailed clinical score, right hind limb [27]: 1
